# Experimental data from patent US9169254B2, “Spiroimidazolone derivative” (Chugai Seiyaku Kabushiki Kaisha, priority 2009, dated 2015).
# Biological target: T1, human PTH1 receptor (Homo sapiens, UniProt Q03431)
# T1 sequence (Q03431 27-593): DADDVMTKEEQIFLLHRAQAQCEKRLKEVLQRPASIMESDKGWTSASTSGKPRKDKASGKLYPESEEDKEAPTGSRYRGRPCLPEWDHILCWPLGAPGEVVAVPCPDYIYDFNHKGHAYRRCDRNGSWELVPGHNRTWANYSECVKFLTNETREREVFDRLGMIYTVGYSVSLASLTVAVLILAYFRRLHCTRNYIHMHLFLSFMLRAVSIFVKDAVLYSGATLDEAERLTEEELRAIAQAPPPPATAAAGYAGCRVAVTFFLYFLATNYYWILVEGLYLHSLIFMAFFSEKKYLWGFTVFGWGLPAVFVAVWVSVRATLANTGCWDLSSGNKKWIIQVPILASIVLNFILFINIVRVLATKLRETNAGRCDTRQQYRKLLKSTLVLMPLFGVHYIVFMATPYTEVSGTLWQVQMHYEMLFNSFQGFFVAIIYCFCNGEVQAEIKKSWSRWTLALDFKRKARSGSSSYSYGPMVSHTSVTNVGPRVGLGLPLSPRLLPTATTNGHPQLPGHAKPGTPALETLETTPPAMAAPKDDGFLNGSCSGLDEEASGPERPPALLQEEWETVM
# Assay: In vitro cAMP signal activity in HKRK-B7 cells (LLC-PK1 cells overexpressing the human PTH1 receptor)
# Type: cell-based
# Conditions: HKRK-B7 cells; compound at 1×10^−3 M; cAMP produced as percentage of that produced by hPTH(1-34) at 100 nM
row,SMILES,cAMP production activity (%)
1,"CC(=O)Nc1ccc(CCS(=O)(=O)N2CCC3(CC2)N=C(C2CCC(CC(C)F)CC2)NC3=O)c(C)c1 (stereo not shown) [Compound 1077, N-[4-(2-{2-[4-(2-fluoro-propyl)-cyclohexyl]-4-oxo-1,3,8-triaza-spiro[4.5]dec-1-ene-8-sulfonyl}-ethyl)-3-methyl-phenyl]-acetamide]",74
2,"CC(=O)Nc1ccc(CCS(=O)(=O)N2CCC3(CC2)N=C(C2CCC(C(C)(C)F)CC2)NC3=O)c(C)c1 (stereo not shown) [Compound 1078, N-[4-(2-{2-[4-(1-Fluoro-1-methyl-ethyl)-cyclohexyl]-4-oxo-1,3,8-triaza-spiro[4.5]dec-1-ene-8-sulfonyl}-ethyl)-3-methyl-phenyl]-acetamide]",74
3,"CCCC=C1CCC(C2=NC3(CCN(S(=O)(=O)CCc4ccc(NC(C)=O)cc4C)CC3)C(=O)N2)CC1 (stereo not shown) [Compound 1079, N-(4-{2-[2-(4-Butylidene-cyclohexyl)-4-oxo-1,3,8-triaza-spiro[4.5]dec-1-ene-8-sulfonyl]-ethyl}-3-methyl-phenyl)-acetamide]",91
4,"CC(=O)Nc1ccc(CCS(=O)(=O)N2CCC3(CC2)N=C(C2CCC(CC(F)(F)C(F)(F)F)CC2)NC3=O)c(C)c1 (stereo not shown) [Compound 1080, N-[3-Methyl-4-(2-{4-oxo-2-[4-(2,2,3,3,3-pentafluoro-propyl)-cyclohexyl]-1,3,8-triaza-spiro[4.5]dec-1-ene-8-sulfonyl}-ethyl)-phenyl]-acetamide]",81
5,"CCCCC#CCCCC1=NC2(CCN(S(=O)(=O)CCc3c(C)cc(N(C)C(N)=O)cc3C)CC2)C(=O)N1 [Compound 1081, 1-{3,5-Dimethyl-4-[2-(2-non-4-ynyl-4-oxo-1,3,8-triaza-spiro[4.5]dec-1-ene-8-sulfonyl)-ethyl]-phenyl}-1-methyl-urea]",53
6,"CCCCCC#CCCC1=NC2(CCN([S@TB17](=O)(=O)CCc3c(C)cc(N(C)C(N)=O)cc3C)CC2)C(=O)N1 [Compound 1082, 1-{3,5-dimethyl-4-[2-(2-non-3-ynyl-4-oxo-1,3,8-triaza-spiro[4.5]dec-1-ene-8-sulfonyl)-ethyl]-phenyl}-1-methyl-urea]",22
7,"CCCCCCCC#CC1=NC2(CCN([S@TB17](=O)(=O)CCc3c(C)cc(N(C)C(N)=O)cc3C)CC2)C(=O)N1 [Compound 1083, 1-{3,5-dimethyl-4-[2-(2-non-1-ynyl-4-oxo-1,3,8-triaza-spiro[4.5]dec-1-ene-8-sulfonyl)-ethyl]-phenyl}-1-methyl-urea]",113
8,"Cc1cc(N(C)C(N)=O)cc(C)c1CC1(S(=O)(=O)N2CCC3(CC2)N=C(c2cccc(OC(F)(F)F)c2)NC3=O)CC1 [Compound 1084, 1-(3,5-Dimethyl-4-{1-[4-oxo-2-(3-trifluoromethoxy-phenyl)-1,3,8-triaza-spiro[4.5]dec-1-ene-8-sulfonyl]-cyclopropylmethyl}-phenyl)-1-methyl-urea]",13
9,"Cc1cc(N(C)C(N)=O)cc(C)c1CC(F)(F)S(=O)(=O)N1CCC2(CC1)N=C(c1cccc(OC(F)(F)F)c1)NC2=O [Compound 1085, 1-(4-{2,2-Difluoro-2-[4-oxo-2-(3-trifluoromethoxy-phenyl)-1,3,8-triaza-spiro[4.5]dec-1-ene-8-sulfonyl]-ethyl}-3,5-dimethyl-phenyl)-1-methyl-urea]",100
10,"CCCCCCCCCC1=NC2(CCN(S(=O)(=O)C(F)(F)Cc3c(C)cc(N(C)C(N)=O)cc3C)CC2)C(=O)N1 [Compound 1086, 1-{4-[2,2-Difluoro-2-(2-nonyl-4-oxo-1,3,8-triaza-spiro[4.5]dec-1-ene-8-sulfonyl)-ethyl]-3,5-dimethyl-phenyl}-1-methyl-urea]",151
11,"Cc1cc(N(C)C(N)=O)cc(C)c1CCS(=O)(=O)N1CCC2(CC1)N=C(c1cccc(-c3ccccc3-c3ccccc3)c1)NC2=O [Compound 1087, 1-{3,5-Dimethyl-4-[2-(4-oxo-2-[1,1′;2′,1″]terphenyl-3-yl-1,3,8-triaza-spiro[4.5]dec-1-ene-8-sulfonyl)-ethyl]-phenyl}-1-methyl-urea]",97
12,"Cc1cc(N(C)C(N)=O)cc(C)c1/C=C/S(=O)(=O)N1CCC2(CC1)N=C(c1ccc(CCCC(F)(F)F)cc1)NC2=O [Compound 1088, 1-[3,5-Dimethyl-4-((E)-2-{4-oxo-2-[4-(4,4,4-trifluoro-butyl)-phenyl]-1,3,8-triaza-spiro[4.5]dec-1-ene-8-sulfonyl}-vinyl)-phenyl]-1-methyl-urea]",95
13,"Cc1cc(N(C)C(N)=O)cc(C)c1/C=C/[S@TB4](=O)(=O)N1CCC2(CC1)N=C(c1cccc(CCCC(F)(F)F)c1)NC2=O [Compound 1089, 1-[3,5-dimethyl-4-((E)-2-{4-oxo-2-[3-(4,4,4-trifluoro-butyl)-phenyl]-1,3,8-triaza-spiro[4.5]dec-1-ene-8-sulfonyl}-vinyl)-phenyl]-1-methyl-urea]",99
14,"Cc1cc(N(C)C(N)=O)cc(C)c1CC(C)S(=O)(=O)N1CCC2(CC1)N=C(c1cccc(OC(F)(F)F)c1)NC2=O (stereo not shown) [Compound 1090, 1-(3,5-Dimethyl-4-{2-[4-oxo-2-(3-trifluoromethoxy-phenyl)-1,3,8-triaza-spiro[4.5]dec-1-ene-8-sulfonyl]-propyl}-phenyl)-1-methyl-urea]",118
15,"Cc1cc(C(=O)N2CCC(O)CC2)cc(C)c1/C=C/S(=O)(=O)N1CCC2(CC1)N=C(c1ccc(F)c(OCCCC(F)(F)C(F)(F)F)c1)NC2=O [Compound 1091, 2-[4-Fluoro-3-(4,4,5,5,5-pentafluoro-pentyloxy)-phenyl]-8-{(E)-2-[4-(4-hydroxy-piperidine-1-carbonyl)-2,6-dimethyl-phenyl]-ethenesulfonyl}-1,3,8-triaza-spiro[4.5]dec-1-en-4-one]",118
16,"Cc1cc(C(=O)N2CCC(C)(O)CC2)cc(C)c1/C=C/S(=O)(=O)N1CCC2(CC1)N=C(c1ccc(F)c(OCCCC(F)(F)C(F)(F)F)c1)NC2=O [Compound 1092, 2-[4-Fluoro-3-(4,4,5,5,5-pentafluoro-pentyloxy)-phenyl]-8-{(E)-2-[4-(4-hydroxy-4-methyl-piperidine-1-carbonyl)-2,6-dimethyl-phenyl]-ethenesulfonyl}-1,3,8-triaza-spiro[4.5]dec-1-en-4-one]",89
17,"Cc1cc(C(=O)N2CCC(C)(O)CC2)cc(C)c1/C=C/[S@TB4](=O)(=O)N1CCC2(CC1)N=C(c1ccc(Cl)c(OC(F)(F)F)c1)NC2=O [Compound 1093, 2-(4-chloro-3-trifluoromethoxy-phenyl)-8-{(E)-2-[4-(4-hydroxy-4-methyl-piperidine-1-carbonyl)-2,6-dimethyl-phenyl]-ethenesulfonyl}-1,3,8-triaza-spiro[4.5]dec-1-en-4-one]",100
18,"Cc1cc(C(=O)N2CCC(C)(O)CC2)cc(C)c1/C=C/[S@TB4](=O)(=O)N1CCC2(CC1)N=C(c1ccc(OC(F)(F)F)c(F)c1)NC2=O [Compound 1094, 2-(3-fluoro-4-trifluoromethoxy-phenyl)-8-{(E)-2-[4-(4-hydroxy-4-methyl-piperidine-1-carbonyl)-2,6-dimethyl-phenyl]-ethenesulfonyl}-1,3,8-triaza-spiro[4.5]dec-1-en-4-one]",100
19,"Cc1cc(C(=O)N2CCC(C)(O)CC2)cc(C)c1/C=C/[S@TB4](=O)(=O)N1CCC2(CC1)N=C(c1ccc(C(F)(F)F)c(C(F)(F)F)c1)NC2=O [Compound 1095, 2-(3,4-bis-trifluoromethyl-phenyl)-8-{(E)-2-[4-(4-hydroxy-4-methyl-piperidine-1-carbonyl)-2,6-dimethyl-phenyl]-ethenesulfonyl}-1,3,8-triaza-spiro[4.5]dec-1-en-4-one]",105
20,"Cc1cc(C(=O)N2CCC(C)(O)CC2)cc(C)c1/C=C/[S@TB4](=O)(=O)N1CCC2(CC1)N=C(c1cccc(OCCCC(F)(F)C(F)(F)F)c1)NC2=O [Compound 1096, 8-{(E)-2-[4-(4-hydroxy-4-methyl-piperidine-1-carbonyl)-2,6-dimethyl-phenyl]-ethenesulfonyl}-2-[3-(4,4,5,5,5-pentafluoro-pentyloxy)-phenyl]-1,3,8-triaza-spiro[4.5]dec-1-en-4-one]",93
21,"Cc1cc(C(=O)N2CCC(C)(O)CC2)cc(C)c1/C=C/[S@TB4](=O)(=O)N1CCC2(CC1)N=C(c1cccc(CC(F)(F)F)c1)NC2=O [Compound 1097, 8-{(E)-2-[4-(4-hydroxy-4-methyl-piperidine-1-carbonyl)-2,6-dimethyl-phenyl]-ethenesulfonyl}-2-[3-(2,2,2-trifluoro-ethyl)-phenyl]-1,3,8-triaza-spiro[4.5]dec-1-en-4-one]",90
22,"Cc1cc(C2=NC3(CCN([S@TB17](=O)(=O)/C=C/c4c(C)cc(C(=O)N5CCC(C)(O)CC5)cc4C)CC3)C(=O)N2)ccc1F [Compound 1098, 2-(4-fluoro-3-methyl-phenyl)-8-{(E)-2-[4-(4-hydroxy-4-methyl-piperidine-1-carbonyl)-2,6-dimethyl-phenyl]-ethenesulfonyl}-1,3,8-triaza-spiro[4.5]dec-1-en-4-one]",88
